“And” between values parts separate entries of the source, which are not always exact repeats. Equal entries are not always repeated.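 Following 48 hours of exposure in 96-well plates, responses at five concentrations were used to interpolate endpoints linearly. GI50 is the concentration that inhibits growth by half.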 The source made the active and inactive calls. Cut-off read from the data, not from the text of the source: active = GI50 up to about 1.1 µM and inactive = higher.
Tests used:
Assay in all cases: inhibition of tumour cell growth, NCI panel, 48 h
ACHN = test system: ACHN
HL-60 = test system: HL-60
HOP-92 = test system: HOP-92
Hs-578T = test system: Hs-578T
K562 = test system: K562
LOX IMVI = test system: LOX IMVI
MCF7 = test system: MCF7
NCI/ADR-RES = test system: NCI/ADR-RES
OVCAR-8 = test system: OVCAR-8
PC-3 = test system: PC-3
RPMI-8226 = test system: RPMI-8226
RXF 393 = test system: RXF 393
SF-539 = test system: SF-539
SK-MEL-5 = test system: SK-MEL-5
SK-OV-3 = test system: SK-OV-3
SNB-75 = test system: SNB-75
T47D = test system: T47D
TK-10 = test system: TK-10
NCI-H226 = test system: NCI-H226
SR = test system: SR

Row | Compound | GI50 (ACHN) | GI50 (HL-60) | GI50 (HOP-92) | GI50 (Hs-578T) | GI50 (K562) | GI50 (LOX IMVI) | GI50 (MCF7) | GI50 (NCI/ADR-RES) | GI50 (OVCAR-8) | GI50 (PC-3) | GI50 (RPMI-8226) | GI50 (RXF 393) | GI50 (SF-539) | GI50 (SK-MEL-5) | GI50 (SK-OV-3) | GI50 (SNB-75) | GI50 (T47D) | GI50 (TK-10) | GI50 (NCI-H226) | GI50 (SR)
1 | [O-]c1c[n+](CCCC[n+]2cc([O-])on2)no1 | > 100 µM (inactive) | > 100 µM (inactive) | > 100 µM (inactive) | > 100 µM (inactive) | > 100 µM (inactive) | > 100 µM (inactive) | > 100 µM (inactive) | > 100 µM (inactive) | > 100 µM (inactive) | > 100 µM (inactive) | > 100 µM (inactive) | > 100 µM (inactive) | > 100 µM (inactive) | > 100 µM (inactive) | > 100 µM (inactive) | > 100 µM (inactive) | > 100 µM (inactive) | > 100 µM (inactive) | – | –
2 | COc1ccc(Cn2c(=O)c(OC)c(C)c3cc4ccccc4cc32)cc1 | 34.6 µM (inactive) | 20 µM (inactive) | – | 40.9 µM (inactive) | 28.3 µM (inactive) | 18.4 µM (inactive) | 33.7 µM (inactive) | 22.1 µM (inactive) | 27.9 µM (inactive) | 16.1 µM (inactive) | – | 34.4 µM (inactive) | 32.7 µM (inactive) | 6.21 µM (inactive) | 42.3 µM (inactive) | 32.1 µM (inactive) | 33.6 µM (inactive) | 25.7 µM (inactive) | 45.7 µM (inactive) | 21.3 µM (inactive)
3 | Cc1sc(C)c2c1C(=O)CC2N (stereo not given) | 16.8 µM (inactive) | 6.64 µM (inactive) | 18.5 µM (inactive) | 44.8 µM (inactive) | 4.85 µM (inactive) | 13.1 µM (inactive) | – | 50.4 µM (inactive) | 21.5 µM (inactive) | 27.4 µM (inactive) | 2.7 µM (inactive) | 16.3 µM (inactive) | 3.26 µM (inactive) | 46.3 µM (inactive) | > 76.6 µM (inactive) | > 50.1 µM (inactive) | 17.4 µM (inactive) | 19.1 µM (inactive) | > 37.8 µM (inactive) | 4.27 µM (inactive)
4 | OC[C@]1(n2nc3ccccc3n2)OC[C@@H]1c1ccccc1 | 36.6 µM (inactive) | 31.4 µM (inactive) | 44.6 µM (inactive) | 56 µM (inactive) | 56.9 µM (inactive) | 42.5 µM (inactive) | 33.7 µM (inactive) | 57.3 µM (inactive) | 51.5 µM (inactive) | 70 µM (inactive) | 26.9 µM (inactive) | – | 25.2 µM (inactive) | 83.2 µM (inactive) | > 100 µM (inactive) | – | 36 µM (inactive) | 60.4 µM (inactive) | 32.2 µM (inactive) | 32.2 µM (inactive)
5 | CCNC(=O)Nc1ccccn1 | > 100 µM (inactive) | > 100 µM (inactive) | > 100 µM (inactive) | > 100 µM (inactive) | > 100 µM (inactive) | – | > 100 µM (inactive) | – | > 100 µM (inactive) | > 100 µM (inactive) | – | > 100 µM (inactive) | > 100 µM (inactive) | > 100 µM (inactive) | > 100 µM (inactive) | 84.5 µM (inactive) | > 100 µM (inactive) | > 100 µM (inactive) | > 100 µM (inactive) | > 100 µM (inactive)
6 | C=C[C@@]1(C)CC2CC[C@]3(C)C(C)=CC(=O)CC3[C@]2(C)CC1O (stereo not given in full) | > 100 µM (inactive) | 32.7 µM (inactive) | > 100 µM (inactive) | > 100 µM (inactive) | 38 µM (inactive) | > 100 µM (inactive) | > 100 µM (inactive) | > 100 µM (inactive) | – | > 100 µM (inactive) | > 100 µM (inactive) | > 100 µM (inactive) | > 100 µM (inactive) | > 100 µM (inactive) | > 100 µM (inactive) | – | > 100 µM (inactive) | > 100 µM (inactive) | > 100 µM (inactive) | > 100 µM (inactive)
7 | COc1ccc([C@@]23Oc4cc(OC)cc(OC)c4[C@]2(O)[C@H](O)[C@H](C(N)=O)[C@H]3c2ccccc2)cc1 [DIDESMETHYLROCAGLAMIDE] | < 0.01 µM (active) | < 0.0192 µM (active) | < 0.01 µM (active) | < 0.01 µM (active) | < 0.01 µM (active) | < 0.01 µM (active) | < 0.01 µM (active) | 0.0656 µM (active) | < 0.01 µM (active) | < 0.01 µM (active) | < 0.01 µM (active) | < 0.01 µM (active) | < 0.01 µM (active) | < 0.01 µM (active) | < 0.01 µM (active) | – | < 0.01 µM (active) | 0.0105 µM (active) | < 0.01 µM (active) | –
8 | NC1=NC(=O)/C(=C2\CCNC(=O)c3[nH]c(Br)cc32)N1 [HYMENIALDISINE] | 45.3 µM (inactive) | 1.6 µM (inactive) and 1.66 µM (inactive) | 29.2 µM (inactive) and 40.8 µM (inactive) | 38.6 µM (inactive) | 3.85 µM (inactive) and 4.1 µM (inactive) | 4.89 µM (inactive) and 4.57 µM (inactive) | 40.9 µM (inactive) and 80.7 µM (inactive) | – | 7.21 µM (inactive) and 10.5 µM (inactive) | 56.6 µM (inactive) | – | 29.7 µM (inactive) and 34.6 µM (inactive) | – | – | – | 34.8 µM (inactive) and 40 µM (inactive) | 7.87 µM (inactive) | 9.12 µM (inactive) | – | 0.303 µM (active)
